# Test results taken from patent EP1306084A1, “Compositions for the control of parasitic infestations in fish” (Alpharma AS, priority 1998, dated 1999).
# Experiments:
# sea lice [1] = assay: Oral treatment (coated feed / Akvaletter) of naturally sea lice infected salmon in minicages (Example 2); type: in vivo, Atlantic salmon (Salmo salar); settings: fluazuron groups, 9.0-12.0 mg per day, 7 days
# Method: The treatment dosage was 9 mg hexaflumuron per kg fish per day for 10 days. This is indicated by "Groups/Timepoints" in the figure; • Figure 2 relates to the trial in Example 2 that was carried out on Atlantic salmon (Salmo salar). […] The treatment dosage varied between 3 - 9 mg hexaflumuron and 9- 12 mg fluazuron per kg fish per day for 7 days. This is indicated by "Groups/Timepoints" in the diagram. […] The treated groups are compared to an untreated control group. The treatment dosage was 4 mg hexaflumuron per kg fish per day for 5 days. This is indicated by "Groups/Timepoints" in the figure. Cage 2 = controls, Cage 4-6 = treated groups, 16.6.97 = time point for sea transfer and 5.8.97= controls treated by bathing with deltamethrin; • Figure 4 relates to the trial described in Example 5, which was carried out on sea trout (Salmo trutta). […] The treated groups are compared with an untreated control group. The dosage for oral treatment was 4 mg hexaflumuron per kilo fish per day for 5 days, and 5 ppm hexaflumuron as a 30 minute bath treatment. This is indicated by "Groups/Timepoints" in the figure. Cage 1.4 = Controls, cage 1.3 = Oral treatment, cage 1.2 = Bath treatment. […] The treated groups are compared with an untreated control group, and one group that has been treated orally with teflubenzuron (10 mg/kg of teflubenzuron per kg fish per day for 7 days). The dosage for oral treatment was 5.6 mg hexaflumuron per kg fish per day for 7 days, and 5 ppm hexaflumuron as a 30 minute bath treatment. […] End of treatment: 22.10.97, Sea transfer: 23.10.97. T1 = 3 weeks post end of treatment, T2 = 5 weeks post end of treatment, T3 = 9 weeks post end of treatment, T4 = 12 weeks post end of treatment; • Figure 6 relates to the trial in Example 6 at time points 4-6, with the same trial parameters as for Figure 5. T5 = 15 weeks post end of treatment, T6 = 17 weeks post end of treatment. Cage 3 and 4 were treated by bath with deltamethrin after sea lice counting at T4 (12.01.98); • Figure 7 relates to the trial described in Example 7 where salmon were injected on 17.12.97 with two formulations (groups L and R, respectively) of hexaflumuron and a vaccine formulation without hexaflumuron (control). […] The vaccinated fish was transferred to sea water on 09.01.98; • Figure 8 summarises the trial of Example 8 where salmon smolts were injected with 9 different active substances on 08.07.98. Only results for Moxidectin (Mox.), Lufenuron (Luf.) and hexaflumuron in Apoject 1-Fural (Hex.Apo) and in animal oil (Hex.oil) are shown, and • Figure 9 summarises the trial described in Example 10 where salmon were injected on 03.12.97 with 3 different formulations of hexaflumuron (Hexa 1, Hexa 2 and Hexa 3). The fish were transferred to sea water at T0. […]
# sea lice [2] = assay: Injection of 9 active substances, protective effect against sea lice (Example 8); type: in vivo, salmon smolt
# Method: (§1) The treatment dosage was 9 mg hexaflumuron per kg fish per day for 10 days. This is indicated by "Groups/Timepoints" in the figure; • Figure 2 relates to the trial in Example 2 that was carried out on Atlantic salmon (Salmo salar). […] The treatment dosage varied between 3 - 9 mg hexaflumuron and 9- 12 mg fluazuron per kg fish per day for 7 days. This is indicated by "Groups/Timepoints" in the diagram. […] The treated groups are compared to an untreated control group. The treatment dosage was 4 mg hexaflumuron per kg fish per day for 5 days. This is indicated by "Groups/Timepoints" in the figure. Cage 2 = controls, Cage 4-6 = treated groups, 16.6.97 = time point for sea transfer and 5.8.97= controls treated by bathing with deltamethrin; • Figure 4 relates to the trial described in Example 5, which was carried out on sea trout (Salmo trutta). […] The treated groups are compared with an untreated control group. The dosage for oral treatment was 4 mg hexaflumuron per kilo fish per day for 5 days, and 5 ppm hexaflumuron as a 30 minute bath treatment. This is indicated by "Groups/Timepoints" in the figure. Cage 1.4 = Controls, cage 1.3 = Oral treatment, cage 1.2 = Bath treatment. […] The treated groups are compared with an untreated control group, and one group that has been treated orally with teflubenzuron (10 mg/kg of teflubenzuron per kg fish per day for 7 days). The dosage for oral treatment was 5.6 mg hexaflumuron per kg fish per day for 7 days, and 5 ppm hexaflumuron as a 30 minute bath treatment. […] End of treatment: 22.10.97, Sea transfer: 23.10.97. T1 = 3 weeks post end of treatment, T2 = 5 weeks post end of treatment, T3 = 9 weeks post end of treatment, T4 = 12 weeks post end of treatment; • Figure 6 relates to the trial in Example 6 at time points 4-6, with the same trial parameters as for Figure 5. T5 = 15 weeks post end of treatment, T6 = 17 weeks post end of treatment. Cage 3 and 4 were treated by bath with deltamethrin after sea lice counting at T4 (12.01.98); • Figure 7 relates to the trial described in Example 7 where salmon were injected on 17.12.97 with two formulations (groups L and R, respectively) of hexaflumuron and a vaccine formulation without hexaflumuron (control). […] The vaccinated fish was transferred to sea water on 09.01.98; • Figure 8 summarises the trial of Example 8 where salmon smolts were injected with 9 different active substances on 08.07.98. Only results for Moxidectin (Mox.), Lufenuron (Luf.) and hexaflumuron in Apoject 1-Fural (Hex.Apo) and in animal oil (Hex.oil) are shown, and • Figure 9 summarises the trial described in Example 10 where salmon were injected on 03.12.97 with 3 different formulations of hexaflumuron (Hexa 1, Hexa 2 and Hexa 3). The fish were transferred to sea water at T0.
# In this trial 9 different active substances were tested for protective effect against sea lice. 1,200 salmon smolt were, prior the start of the trial, vaccinated with a commercial vaccine, ALPHA JECT 5100.
# One week after sea water transfer the salmon was divided into 12 groups and injected with different formulations of the 9 different active substances. In parallel with the 12 groups, a 13th group comprising 50 fish of the same origin and size was injected with a saline (PBS) solution without active substance. This group served as negative control/reference group in respect of sea lice infestations. The groups were marked by fin cutting and distributed randomly into 3 cages.
# The active substances that were used as injection were hexaflumuron, buprofezin, diflubenzuron, fluazuron, lufenuron, ivermectin, doramectin, moxidectin and milbemycin oxime, respectively. All the fish were injected with 0.2 ml of the various injection formulations. Hexaflumuron, buprofezin, fluazuron, lufenuron and diflubenzuron were administered at a dosage of about 50 mg/kg whereas ivermectin, doramectin and moxidectin were administered at a dosage of 0.2 mg/kg (recommended dosage for mammals). […]
# sea lice [3] = assay: Oral or bath treatment in freshwater before sea transfer, sea lice counts after natural infestation (Example 6); type: in vivo, Atlantic salmon (Salmo salar)
# Method: as §1
# About 400 Atlantic salmon (Salmo salar) of an average weight of 80 grams were divided into four groups of 100 fish in each. One group was given an oral treatment of 5.6 mg hexaflumuron per kg fish each day for 7 days before sea transfer. Group two was given a bath treatment with a dosage of 5 ppm (mg/l) hexaflumuron for 30 minutes with a formulation containing 10% hexaflumuron. Group three was given oral treatment with a daily dosage of 10 mg teflubenzuron per kg fish for 7 days, while the last group remained untreated. […] Every third week, lice from 10 fish in each cage were counted to assess if there was a difference in the number of lice between the cages. […]
# sea lice [4] = assay: Oral treatment in freshwater before sea transfer, sea lice counts after natural infection (Example 4); type: in vivo, salmon (Salmo salar); settings: bath treatment, 7 weeks into the trial
# Method: (§2) The treatment dosage was 9 mg hexaflumuron per kg fish per day for 10 days. This is indicated by "Groups/Timepoints" in the figure; • Figure 2 relates to the trial in Example 2 that was carried out on Atlantic salmon (Salmo salar). […] The treatment dosage varied between 3 - 9 mg hexaflumuron and 9- 12 mg fluazuron per kg fish per day for 7 days. This is indicated by "Groups/Timepoints" in the diagram. […] The treated groups are compared to an untreated control group. The treatment dosage was 4 mg hexaflumuron per kg fish per day for 5 days. This is indicated by "Groups/Timepoints" in the figure. Cage 2 = controls, Cage 4-6 = treated groups, 16.6.97 = time point for sea transfer and 5.8.97= controls treated by bathing with deltamethrin; • Figure 4 relates to the trial described in Example 5, which was carried out on sea trout (Salmo trutta). […] The treated groups are compared with an untreated control group. The dosage for oral treatment was 4 mg hexaflumuron per kilo fish per day for 5 days, and 5 ppm hexaflumuron as a 30 minute bath treatment. This is indicated by "Groups/Timepoints" in the figure. Cage 1.4 = Controls, cage 1.3 = Oral treatment, cage 1.2 = Bath treatment. […] The treated groups are compared with an untreated control group, and one group that has been treated orally with teflubenzuron (10 mg/kg of teflubenzuron per kg fish per day for 7 days). The dosage for oral treatment was 5.6 mg hexaflumuron per kg fish per day for 7 days, and 5 ppm hexaflumuron as a 30 minute bath treatment. […] End of treatment: 22.10.97, Sea transfer: 23.10.97. […]
# About 2,500 salmon (Salmo salar) of average weight 42 grams were treated orally with a daily dosage of 4 mg hexaflumuron per kilo fish for 5 days. […] The number of lice on 10 fish from each cage were counted every third week to check if there was any difference in the number of lice in the cages. […]
# sea lice [5] = assay: Oral or bath treatment in freshwater before sea transfer, sea lice counts after natural infection (Example 5); type: in vivo, sea trout (Salmo trutta); settings: bath treatment 2, 5 and 8 weeks after sea transfer
# Method: as §2, with “23.10.97. T1 = 3 weeks post end of treatment, T2 = 5 weeks post end of treatment, T3 = 9 weeks post end of treatment, T4 = 12 weeks post end of treatment; • Figure 6 relates to the trial in Example 6 at time points 4-6, with the same trial parameters as for Figure 5.” for “23.10.97.”
# About 300 sea trout (Salmo trutta) of an average weight of 160 grams were divided into three groups of 100 fish each. […] Lice from 6-10 fish from each cage were counted every third week to assess whether there was any difference in the number of lice between the cages. […]
compound,measurement,setting,value
"O=C(NC(=O)c1c(F)cccc1F)Nc1ccc(Cl)c(Oc2ncc(C(F)(F)F)cc2Cl)c1 [fluazuron, reference compound]",reduction as compared to the control group,sea lice [1],25%
"O=C(NC(=O)c1c(F)cccc1F)Nc1ccc(Cl)cc1 [diflubenzuron, reference compound]",protection against new establishments by sea lice,sea lice [2]; summary statement referring to Example 8,do not protect
O=C(NC(=O)c1c(F)cccc1F)Nc1cc(Cl)c(F)c(Cl)c1F [teflubenzuron],number of lice compared with untreated control group,"sea lice [3]; oral 10 mg teflubenzuron per kg fish daily for 7 days, at each assessment",same number of lice as the untreated control group
same,protection against new establishments by sea lice,sea lice [3]; summary statement referring to Example 6,do not protect
"O=C(NC(=O)c1c(F)cccc1F)Nc1cc(Cl)c(OC(F)(F)C(F)C(F)(F)F)cc1Cl (centres unmarked) [lufenuron, reference compound]",protection against sea lice,"sea lice [2]; T2, 40 days after injection, hexaflumuron, lufenuron about 50 mg/kg, moxidectin 0.2 mg/kg",showed protection
same,lice on average,"sea lice [2]; T3, 70 days after injection, formulated in Apoject 1-Fural, about 50 mg/kg, control group 5.6",0.6
same,"good protection against lice until T5, time after injection","sea lice [2]; lufenuron in Apoject 1-Fural, about 50 mg/kg",128 days
same,protection following injection,"sea lice [2]; other active substances, summary of trial",good protection for an extended period of time
"CC1(C)[C@H](C(=O)O[C@H](C#N)c2cccc(Oc3ccccc3)c2)[C@@H]1C=C(Br)Br [deltamethrin, reference compound]",bath treatment of control fish to reduce the number of pre-adult lice,sea lice [4],successful
same,"bath treatment of control fish, number of lice",sea lice [5],successful
same,"bath treatment of control and teflubenzuron groups, number of lice",sea lice [3]; bath treatment after T4,successful
